Assay results reported in a melting point compilation (Tetko et al.; mined from patent text by program, amines drawn as free bases though some values may be those of a salt).

Row | SMILES | melting point [°C]
1 | CCCN1CCOc2cccc3nc4c(c1c23)CCCC4 | 74.5 to 75.5
2 | Cc1[nH]cnc1C=C1CC2CCCn3c2c(c2ccccc23)C1=O (stereo not drawn) | 289 to 290
3 | O=C(/C=C/c1cccc([N+](=O)[O-])c1)N1CCN(C(=O)c2cc(C(F)(F)F)cc(C(F)(F)F)c2)[C@H](Cc2c[nH]c3ccccc23)C1 | 127 to 133
4 | Nc1c(N=Nc2ccc(Cl)cc2)ccc2c(S(N)(=O)=O)cccc12 | 258
5 | O=[N+]([O-])c1ccc(NS(=O)(=O)c2ccccc2)cc1 | 137
6 | CC1C(O)CCC2CC3(CCC21)OCCO3 (stereo not drawn) | 56 to 68
7 | Cc1cc2c(cc1C)C(=O)C(CN1CCC3(CC1)C(=O)NCN3c1ccccc1)CC2 (stereo not drawn) | 182 to 183
8 | Nc1ccc(CN2CCN(Cc3ccc(N)cc3)C(=O)C2=O)cc1 | 193 to 194
9 | Cc1cccc(NC(c2ccc(F)c(F)c2)c2ccc3cccnc3c2O)n1 (stereo not drawn) | 162 to 165
10 | CN(C)CC(C)(C)Oc1cnc(Nc2cc(-c3cccc(-n4ncc5cc(C(C)(C)C)cc(F)c5c4=O)c3CO)nn(C)c2=O)cn1 | 235 to 240
11 | O=S(=O)(c1ccccc1)c1ccc(Br)cc1 | 95 to 99
12 | Cc1cc(Br)cnc1CCCCN=C(NC#N)NCc1ccccc1 | 140 to 141
13 | O=[N+]([O-])c1ccc2sc(CCl)cc2c1 | 110 to 112
14 | CS(=O)(=O)N1CCSc2cccc(F)c2C1 | 115 to 117
15 | C=CC(=O)NC(=O)NCCCl | 156 to 158
16 | COCC(=O)N[C@H]1c2ccccc2C[C@@H]1C | 78 to 79
17 | O=c1oc(-c2ccccc2Cl)cc(O)c1SCc1ccccc1 | 99 to 101
18 | CCCCn1c(=O)c2cc(C(=O)OCC)cn2c2cc(Cl)c(Cl)cc21 | 179 to 180
19 | CC(C)N=C(N=c1ccccn1CCc1ccccc1Br)NC(C)C | 125 to 128
20 | CC(C)C[C@@H](C(=O)O)n1sc2ccc(F)cc2c1=O | 161 to 162
21 | Cc1oc(-c2ccco2)nc1COc1ccc(COc2nn(Cc3ccc(OCc4nc(-c5ccco5)oc4C)cc3)cc2C(=O)O)cc1 | 144 to 145
22 | NCC1Cc2cc(Cl)cc(-c3cc(Cl)ccc3Cl)c2O1 (stereo not drawn) | 160 to 162
23 | CCCCc1nc2c(N)nc3cccnc3c2n1CC(C)C | 115 to 116
24 | Cc1cc2c(cc1C)Sc1cscc1C(=O)N2 | 264 to 265
25 | CC(C)CC(=O)c1c(-c2ccc3cc(O)cc(Br)c3c2)oc2ccccc12 | 160 to 161

Continued, values first:

Row | melting point [°C] | SMILES
26 | 201 to 204 | O=C(CC(F)(F)F)Nc1c(C(=O)c2ccccc2)[nH]c2cc(Cl)ccc12
27 | 125 to 127 | COc1ccc2nc(NC(=O)C(CC3CCCC3)c3ccc(S(=O)(=O)Nc4cccnc4)cc3)sc2n1 (stereo not drawn)
28 | 147 to 150 | C=CCOc1ccc(CC(=O)NCC(=O)N[C@@H](Cc2c[nH]cn2)C(=O)OC)cc1Cl
29 | 138 to 139 | O=C(NO)c1ccc(OCCNS(=O)(=O)c2ccc(C(=O)Nc3ccc(Cl)c(-c4ccccn4)c3)c(Cl)c2)cc1
30 | 135 to 137 | CCC12CCC3=C(CCc4cc(OC)ccc43)C1CCC21OCCO1 (stereo not drawn)
31 | 96 to 101 | COC(=O)C(Cc1ccccc1)Oc1ccc2cc(-c3csc(-c4ccccc4)n3)ccc2c1Br (stereo not drawn)
32 | 205 to 210 | O=C(c1cc2cc3oc(=O)[nH]c3cc2o1)N1CCC(Cc2ccccc2)CC1
33 | > 300 | COc1ccc(-c2cc3c(N4CCc5ccccc54)ncnc3[nH]2)cc1
34 | 153 to 157 | O=C(O)Cc1onc(-c2ccccc2)c1-c1ccccc1
35 | 186 | COc1ccc2c(c1)c(CC(=O)OCC(=O)O)c(C)n2C(=O)c1c(F)cccc1F
36 | 131 to 132 | O=C(O)Cc1ccccc1OCc1cn(-c2ccc(C(F)(F)F)cn2)nc1C1CCCCC1
37 | 265 to 267 | COc1ccc(C(=O)Oc2ccc(C(=O)O)cc2)cc1C12CC3CC(CC(C3)C1)C2
38 | 144 to 146 | Cc1ccc(C2CC(=O)c3ccccc3N2)cc1 (stereo not drawn)
